Experiment [1] addresses T1, Human TG2 (Homo sapiens, UniProt P21980).
T1 construct: made in house
T1 sequence (P21980 1-687): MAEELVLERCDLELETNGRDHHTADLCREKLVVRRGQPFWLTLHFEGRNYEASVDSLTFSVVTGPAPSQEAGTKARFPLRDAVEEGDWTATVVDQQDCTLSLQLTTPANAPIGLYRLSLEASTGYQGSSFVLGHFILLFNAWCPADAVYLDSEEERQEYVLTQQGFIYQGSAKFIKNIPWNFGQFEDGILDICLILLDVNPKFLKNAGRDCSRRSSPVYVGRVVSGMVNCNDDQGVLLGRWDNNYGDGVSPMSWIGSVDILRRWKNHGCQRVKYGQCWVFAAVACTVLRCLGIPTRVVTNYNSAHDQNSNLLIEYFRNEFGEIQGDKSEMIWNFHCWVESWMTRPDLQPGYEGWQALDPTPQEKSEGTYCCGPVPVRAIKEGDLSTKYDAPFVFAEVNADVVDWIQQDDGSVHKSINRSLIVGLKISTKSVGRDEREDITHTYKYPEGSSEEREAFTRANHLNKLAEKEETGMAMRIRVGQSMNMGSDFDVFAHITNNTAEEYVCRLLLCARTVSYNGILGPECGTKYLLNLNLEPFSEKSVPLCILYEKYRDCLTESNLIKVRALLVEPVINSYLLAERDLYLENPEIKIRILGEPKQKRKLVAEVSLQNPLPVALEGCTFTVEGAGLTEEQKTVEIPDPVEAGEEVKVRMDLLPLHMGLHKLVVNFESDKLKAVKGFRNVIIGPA
Also noted: method as in PMID 35158154, PMID 28858494. To be noted: read-out: KM of substrate for TG2; cited from earlier work.

Experiment [2] has as its target T2, Thrombin-activated human FXIIIa (Homo sapiens, UniProt P00488).
T2 construct: purchased Zedira GmbH T070
T2 sequence (P00488 39-732 limits assumed): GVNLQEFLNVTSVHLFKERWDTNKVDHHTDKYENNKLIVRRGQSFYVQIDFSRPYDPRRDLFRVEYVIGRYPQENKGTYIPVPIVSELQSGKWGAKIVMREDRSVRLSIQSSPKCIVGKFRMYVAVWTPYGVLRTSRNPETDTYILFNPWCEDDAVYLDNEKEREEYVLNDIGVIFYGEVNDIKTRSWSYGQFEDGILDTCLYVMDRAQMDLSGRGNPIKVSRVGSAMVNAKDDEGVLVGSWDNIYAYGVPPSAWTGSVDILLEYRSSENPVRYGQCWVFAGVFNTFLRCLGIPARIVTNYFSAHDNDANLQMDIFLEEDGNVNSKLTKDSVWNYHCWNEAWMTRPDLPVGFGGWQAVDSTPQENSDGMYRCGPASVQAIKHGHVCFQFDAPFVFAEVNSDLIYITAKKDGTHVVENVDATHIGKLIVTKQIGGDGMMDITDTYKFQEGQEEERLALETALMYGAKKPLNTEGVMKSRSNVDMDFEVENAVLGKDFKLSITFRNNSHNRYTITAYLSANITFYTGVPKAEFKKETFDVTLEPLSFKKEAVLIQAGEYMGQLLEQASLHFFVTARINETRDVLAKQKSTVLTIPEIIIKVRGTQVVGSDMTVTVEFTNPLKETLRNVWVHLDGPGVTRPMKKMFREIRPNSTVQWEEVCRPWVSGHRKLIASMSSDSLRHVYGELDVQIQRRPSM
Description: Fluorescence-quenched A101 isopeptidase assay of FXIIIa inhibition kinetics. In kind it is biochemical. To be noted: 0, 100, 200, 320 µM.

Non-standard residues stand in square brackets, D forms with d. Residues, ends and D or L forms follow the SMILES beside them. ξ: configuration not given here. *: point of attachment. ONp = O=[N+]([O-])c1ccc(O*)cc1; ξE = NC(CCC(=O)O)C(=O)O; Cbz = O=C(OCc1ccccc1)*

As a reminder, the Km is the concentration of substrate that gives half-maximal velocity. Consider `O=C(O)CNC(=O)C(CCC(=O)Oc1ccc([N+](=O)[O-])cc1)NC(=O)OCc1ccccc1` (centres unmarked) [AL5, Cbz-Glu(ɣ-p-nitrophenyl ester)Gly-OH] (Cbz-[ξE](ONp)-Gly-OH), for which, in experiment [1], the Km was 10 µM. Regarding `CN(C)c1cccc2c(S(N)(=O)=O)cccc12` [Dansyl amide], the “traces in FXIIIa A101 inhibition assay (fluorescence interference control)” value in experiment [2] was “nearly identical traces as those obtained using the dansylated inhibitor library”.

These data come from PMC9960274, “Peptidic Inhibitors and a Fluorescent Probe for the Selective Inhibition and Labelling of Factor XIIIa Transglutaminase” (Molecules, 2023).
